In PubChem BioAssay AID504605 (National Center for Advancing Translational Sciences (NCATS), 2011) one finds half-life data, which are given here for one molecule.

This data set has as its system mouse liver microsomes, LC-MS/MS, half-life. Put plainly: Inhibitors of 12-hLO: Mouse Liver Microsome Stability Profiling. The conditions noted are these: at 1 µM; hits give high values. From the text: Assay Provider: Holman, T.R., University of California, Santa Cruz Grant #: MH08128301 Screening Center PI: Austin, C.P. Screening Center: NIH Chemical Genomics Center [NCGC] Human lipoxygenase 12hLO is a member of the closely related lipoxygenase family of enzymes which catalyze the site-specific oxidation of arachidonic acid to various hormone precursor molecules and as such is a candidate for drug development in a variety of disease areas, such as cancer and inflammation. After qHTS, hits were confirmed in follow-up assays, and leads were optimized through SAR. The resulting lead compound was further characterized through a battery ADME-Tox experiments. These assay and this assay describes its mouse liver microsome stability. Mouse liver microsomes are created through broken up endoplasmic reticulum from mouse liver. These liver microsomes contain many drug metabolizing enzymes, such as Cytochome P-450s and flavin-containing monooxygenases. Because metabolism is major way of drug clearance, this is an important result.
1uM of compound in incubated in mouse liver microsome; the reference compound is ketanserin. Compounds are incubated at 37 degrees C for different time periods: 0, 5, 15, 30, 45, and 60 minutes. Samples are analyzed with LC-MS/MS.

Turning to `CC(=O)NC(c1cccs1)c1cc(Br)c2cccnc2c1O` (stereo unspecified), the half-life was 9 min.
